Assays:
[1] = biological target: T1, recombinant human Cox-1 (r-hu Cox1) (Homo sapiens, UniProt P23219); assay: Recombinant human PGHS-1 enzyme assay (RHUCX1); format: biochemical; settings: read-out: RHUCX1 % Inh. at Dose
T1 construct: made in house; host or cells: baculovirus/Sf9 insect cells (microsomes)
In short: (§1)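 Recombinant enzyme reaction ran 2.5 minutes at room temperature, then was quenched with HCl and neutralized with NaOH. PGE2 formed with and without drug was quantified by EIA against standards in the same milieu. Percent inhibition versus control mean; IC50 by linear regression.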

[2] = biological target: T2, recombinant human Cox-2 (r-hu Cox-2) (Homo sapiens, UniProt P35354); assay: Recombinant human PGHS-2 enzyme assay (RHUCX2); format: biochemical; settings: for IC50: read-out: RHUCX2 IC50 (parenthetical value)
T2 construct: made in house; host or cells: baculovirus/Sf9 insect cells (microsomes)
T2 sequence (P35354 18-604): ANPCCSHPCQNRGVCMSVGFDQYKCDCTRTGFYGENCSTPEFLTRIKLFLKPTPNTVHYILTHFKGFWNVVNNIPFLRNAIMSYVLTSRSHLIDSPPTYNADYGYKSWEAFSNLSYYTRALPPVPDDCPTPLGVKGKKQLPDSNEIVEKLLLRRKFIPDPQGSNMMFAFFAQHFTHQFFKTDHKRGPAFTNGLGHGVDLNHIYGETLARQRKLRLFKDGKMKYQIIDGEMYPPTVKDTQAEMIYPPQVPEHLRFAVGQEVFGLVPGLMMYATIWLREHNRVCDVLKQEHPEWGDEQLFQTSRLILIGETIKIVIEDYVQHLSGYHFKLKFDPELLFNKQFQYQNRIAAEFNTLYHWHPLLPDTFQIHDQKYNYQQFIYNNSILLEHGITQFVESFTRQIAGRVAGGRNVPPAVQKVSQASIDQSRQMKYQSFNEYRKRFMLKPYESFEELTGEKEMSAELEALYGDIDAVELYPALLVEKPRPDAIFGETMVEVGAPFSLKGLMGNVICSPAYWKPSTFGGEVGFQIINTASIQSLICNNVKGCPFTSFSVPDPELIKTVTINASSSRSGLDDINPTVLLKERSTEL
In short: as §1

[3] = read-out: RHUCX2 % Inh. at Dose

T1 sequence (P23219 24-599): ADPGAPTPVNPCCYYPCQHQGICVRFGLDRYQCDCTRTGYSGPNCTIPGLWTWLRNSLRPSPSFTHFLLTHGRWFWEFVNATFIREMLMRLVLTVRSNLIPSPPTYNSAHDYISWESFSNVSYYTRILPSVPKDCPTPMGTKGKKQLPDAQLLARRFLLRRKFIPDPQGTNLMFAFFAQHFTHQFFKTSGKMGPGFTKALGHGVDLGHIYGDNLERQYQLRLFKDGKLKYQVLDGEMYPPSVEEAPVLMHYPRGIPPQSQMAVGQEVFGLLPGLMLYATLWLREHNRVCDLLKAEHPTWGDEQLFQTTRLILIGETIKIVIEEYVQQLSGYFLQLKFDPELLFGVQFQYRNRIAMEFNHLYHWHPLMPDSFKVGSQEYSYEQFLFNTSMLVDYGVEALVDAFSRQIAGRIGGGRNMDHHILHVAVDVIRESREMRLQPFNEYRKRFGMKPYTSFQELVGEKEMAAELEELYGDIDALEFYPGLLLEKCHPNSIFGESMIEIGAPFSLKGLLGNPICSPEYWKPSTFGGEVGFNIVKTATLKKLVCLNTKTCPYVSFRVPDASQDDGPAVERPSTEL

Row | SMILES | inhibition at 10 µM [1] | inhibition at 100 µM [1] | inhibition at 0.1 µM [2, 3] | melting point | IC50 [2] | inhibition at 0.01 µM [2, 3] | inhibition at 0.03 µM ([2]; 0.03 μM, read-out: RHUCX2 % Inh. at Dose) | inhibition at 1 µM [2, 3] | inhibition at 1 µM [1] | inhibition at 10 µM ([2]; 10 μM, read-out: RHUCX2 % Inh. at Dose)
1 | NS(=O)(=O)c1ccc(-c2cnn(Cc3ccc(F)cc3)c(=O)c2-c2ccc(F)cc2)cc1 [Example 150, 2-(4-Fluorobenzyl)-4-(4-fluorophenyl)-5-[4-(aminosulfonyl)phenyl]-3(2H)-pyridazinone] | 39% | 56% | 100% | 237 to 239 °C |  |  |  |  |  | 
2 | C=CCC(C)COc1c(-c2ccc(S(C)(=O)=O)cc2)cnn(-c2ccc(F)cc2)c1=O (centres unmarked) [Example 434, 2-(4-Fluorophenyl)-4-(2-methyl-4-pentenyl-1-oxy)-5-[4-(methylsulfonyl)phenyl]-3(2H)-pyridazinone] |  | 0% |  | 106 to 107 °C | 81 nM |  |  |  |  | 
3 | CC(C)CC(C)Oc1c(-c2ccc(S(C)(=O)=O)cc2)cnn(-c2ccc(F)c(F)c2)c1=O (centres unmarked) [Example 438] |  | 0% |  | 132 to 133 °C | 127 nM |  |  |  |  | 
4 | CC(C)CCCOc1c(-c2ccc(S(C)(=O)=O)cc2)cnn(-c2cccc(Cl)c2)c1=O [Example 413] |  | 0% |  | 139 to 140 °C | 110 nM |  |  |  |  | 
5 | CS(=O)(=O)c1ccc(-c2cnn(Cc3ccc(F)cc3F)c(=O)c2-c2ccc(F)cc2)cc1 [Example 22, 2-(2,4-Difluorobenzyl)-4-(4-fluorophenyl)-5-[4-(methylsulfonyl)phenyl]-3(2H)-pyridazinone] |  | 25% |  | 179 to 182 °C |  | 35% | 91% |  |  | 
6 | CS(=O)(=O)c1ccc(-c2cnn(Cc3ccccc3C(F)(F)F)c(=O)c2-c2ccc(F)cc2)cc1 [Example 25, 2-(2-Trifluoromethylbenzyl)-4-(4-fluorophenyl)-5-[4-(methylsulfonyl)phenyl]-3(2H)-pyridazinone] |  | 1% | 66% | 87 to 90 °C |  |  |  | 93% |  | 
7 | CS(=O)(=O)c1ccc(-c2cnn(Cc3c(F)c(F)c(F)c(F)c3F)c(=O)c2-c2ccc(F)cc2)cc1 [Example 45, 2-(2,3,4,5,6-Pentafluorobenzyl)-4-(4-fluorophenyl)-5-[4-(methylsulfonyl)phenyl]-3(2H)-pyridazinone] |  | 5% | 63% | 115 to 116 °C |  |  |  | 85% |  | 
8 | CS(=O)(=O)c1ccc(-c2cnn(-c3ccc(F)c(F)c3)c(=O)c2OCCC2C=CCC2)cc1 (centres unmarked) [Example 440, 2-(3,4-Difluorophenyl)-4-(2-cyclopent-2-enyl-1-ethoxy)-5-[4-(methylsulfonyl)phenyl]-3(2H)-pyridazinone] |  | 20% | 59% | 126 to 127 °C |  | 22% |  | 84% |  | 
9 | CC(C)=CCCOc1c(-c2ccc(S(C)(=O)=O)cc2)cnn(-c2cccc(Cl)c2)c1=O [Example 426, 2-(3-Chlorophenyl)-4-(4-methyl-3-pentenyloxy)-5-[4-(methylsulfonyl)phenyl]-3(2H)-pyridaznone] |  | 1% |  | 110 to 111 °C | 57 nM |  |  |  |  | 
10 | CS(=O)(=O)c1ccc(-c2cnn(-c3cccc(Cl)c3)c(=O)c2Cc2ccc(F)cc2)cc1 [Example 369, 2-(3-Chlorophenyl)-4-(4-fluorobenzyl)-5-[4-(methylsulfonyl)phenyl]-3(2H)-pyridazinone] |  | 0% | 48% | 183 to 185 °C |  |  |  | 70% |  | 
11 | CC(C)CCOc1c(-c2ccc(S(C)(=O)=O)cc2)cnn(CC(F)(F)F)c1=O [Example 447, 2-(2,2,2-Trifluoroethyl)-4-(3-methylbutoxy)-5-[4-(methylsulfonyl)phenyl]-3(2H)-pyridazinone] |  | 0% | 57% | 111 to 113 °C |  | 35% |  | 90% |  | 
12 | CS(=O)(=O)c1ccc(-c2cnn(C=C(F)C(F)(F)C(F)(F)F)c(=O)c2-c2ccc(F)cc2)cc1 [Example 40, 2-(2,3,3,4,4,4-Hexafluorobuten-1-yl)-4-(4-fluorophenyl)-5-[4-(methylsulfonyl)phenyl]-3(2H)-pyridazinone] | 76% |  | 89% | 167 to 169 °C |  |  |  | 97% | 69% | 
13 | CS(=O)(=O)c1ccc(-c2cnn(CC3CC3)c(=O)c2-c2ccc(F)cc2)cc1 [Example 26, 2-(Cyclopropylmethyl)-4-(4-fluorophenyl)-5-[4-(methylsulfonyl)phenyl]-3(2H)-pyridazinone] |  | 10% | 44% | 118 to 121 °C |  | 44% |  | 91% |  | 

The next lines start with the values.

Row | inhibition at 10 µM [1] | inhibition at 100 µM [1] | inhibition at 0.1 µM [2, 3] | melting point | IC50 [2] | inhibition at 0.01 µM [2, 3] | inhibition at 0.03 µM ([2]; 0.03 μM, read-out: RHUCX2 % Inh. at Dose) | inhibition at 1 µM [2, 3] | inhibition at 1 µM [1] | inhibition at 10 µM ([2]; 10 μM, read-out: RHUCX2 % Inh. at Dose) | SMILES
14 |  | 7% | 52% | 192 to 194 °C |  | 47% |  | 71% |  |  | CS(=O)(=O)c1ccc(-c2cnn(-c3ccc(F)c(F)c3)c(=O)c2Oc2ccc(Cl)cc2)cc1 [Example 281, 2-(3,4-Difluorophenyl)-4-(4-chlorophenoxy)-5-[4-(methylsulfonyl)phenyl]-3(2H)-pyridazinone]
15 |  |  |  | 243 to 245 °C | 221 nM |  |  |  | 89% |  | Cc1cc(-c2c(-c3ccc(S(N)(=O)=O)cc3)cnn(-c3ccc(F)c(F)c3)c2=O)ccc1F [Example 402, 2-(3,4-Difluorophenyl)-4-(4-fluoro-3-methylphenyl)-5-[4-(aminosulfonyl)phenyl]-3(2H)-pyridazinone]
16 | 32% |  | 83% | 134 to 136 °C |  |  |  | 99% |  |  | CS(=O)(=O)c1ccc(-c2cnn(Cc3ccccc3)c(=O)c2-c2ccc(F)c(Cl)c2)cc1 [Example 52, 2-Benzyl-4-(3-chloro-4-fluorophenyl)-5-[4-(methylsulfonyl)phenyl]-3(2H)-pyridazinone]
17 |  | 4% |  | 180 to 182 °C | 215 nM |  |  |  |  |  | CS(=O)(=O)c1ccc(-c2cnn(-c3ccc(F)cc3)c(=O)c2Cc2ccccc2)cc1 [Example 230, 2-(4-Fluorophenyl)-4-benzyl-5-[4-(methylsulfonyl)phenyl]-3(2H)-pyridazinone]
18 |  | 7% | 48% | 211 to 213 °C |  |  |  | 84% |  |  | CS(=O)(=O)c1ccc(-c2cnn(-c3ccc(F)c(F)c3)c(=O)c2C#Cc2ccccc2)cc1 [Example 254, 2-(3,4-Difluorophenyl)-4-(phenylethynyl)-5-[4-(methylsulfonyl)phenyl]-3(2H)-pyridazinone]
19 | 96% |  |  | 178 to 180 °C | 9 nM |  |  |  | 81% |  | CS(=O)(=O)c1ccc(-c2cnn(-c3cccc(Cl)c3)c(=O)c2Oc2cccc(F)c2)cc1 [Example 411, 2-(3-Chlorophenyl)-4-(3-fluorophenoxy)-5-[4-(methylsulfonyl)phenyl]-3(2H)-pyridazinone]
20 |  | 0% | 62% | 111 to 113 °C |  |  |  | 83% |  | 14% | CC(C)CCCc1c(-c2ccc(S(C)(=O)=O)cc2)cnn(-c2ccc(F)c(F)c2)c1=O [Example 444, 2-(3,4-Difluorophenyl)-4-(4-methylpentyl)-5-[4-(methylsulfonyl)phenyl]-3(2H)-pyridazinone]

From patent publication US20020028938A1, “Prostaglandin endoperoxide H synthase biosynthesis inhibitors” (priority 1997, published 2002)
